In PubChem BioAssay AID1963849 (Molecular Pharmacology Branch, DTP, NCI, 2024):
Several values for one entry are separate records, joined by “and”; a condition that tells them apart may be missing. Equal values may be shown once.

Test system: 299254-011-R-J1-PDC complex spheroid viability
Assay: Anticancer human tumor 299254-011-R-J1-PDC patient-derived melanoma cell line growth inhibition [POLQ]
Conditions: for viability, T/C: stronger effect = lower value
Description: Multicellular complex tumor spheroid response to Polymerase (POL) inhibitors (novobiocin, ART-558, RP6685) in combination with a variety of drugs and investigational agents in selected tumor cell lines
The POL inhibitors (novobiocin, ART-558, and RP6685) were evaluated both individually and in combination with standard of care and investigational anticancer small molecules within a complex spheroid model of solid tumors. . Complex spheroids include a stromal component modeled by human endothelial cells (HUVEC) and fibroblasts modeled by human mesenchymal stem cells (MSCs). The concentration ranges selected for each drug and investigational agent were based upon clinically achievable concentrations if the clinical Cmax of the agent was known.
Compounds. The drugs and investigational agents: novobiocin (NSC847541), ART-558 (NSC835418), RP-6685 (NSC848927), peposertib (NSC802822), ceralasertib (NSC780249), elimusertib (NSC800525), camonsertib (NSC841442), AZD-1390 (NSC803789), olaparib (NSC753686), talazoparib (NSC767125), rucaparib (NSC756644), sotorasib (NSC818433), MRTX-1133 (NSC836407), SN-38 (NSC673596), topotecan (NSC609699), epotoside (NSC141540), doxorubicin (NSC123127), gemcitabine (NSC613327), 5-fluorouracil (NSC19893), paclitaxel (NSC125973), vemurafenib (NSC761431), MSA-2 (NSC828583), SN-011 (NSC837082), adavosertib (NSC754352), prexasertib (NSC758257), carboplatin (NSC241240) and oxaliplatin (NSC266046), were obtained from the National Cancer Institute (NCI) Developmental Therapeutics Program Chemical Repository (21). The FDA-approved anticancer drug set is available from the Developmental Therapeutics Program at https://dtp.cancer.gov/organization/dscb/obtaining/. […] The stock solutions were prepared in dimethyl sulfoxide (DMSO, Sigma-Aldrich, St. Louis, MO, cat. D2650), except for the platinum compounds which were prepared in saline (Quality Biological, Gaithersburg, MD, cat. 114-055-101), at 800-fold the tested concentration and stored at -70 degrees C prior to their use. All drugs and investigational agents were tested over a range starting from a high concentration at or near the clinical Cmax and decreasing in half-log increments. If the clinical Cmax for an agent had not been determined, the highest concentration tested was 10 microM, except for SN-38, which was tested at a high concentration of 1 microM.
Cell Culture. All cells were maintained in an incubator at 37 degrees C and 5% CO2 with 95% humidity. The PDC lines were cultured according to standard operating procedures established by the NCI PDMR (https://pdmr.cancer.gov). Table 3 of the manuscript, lists the cell lines along with the number of the three cell types plated to form the mct-spheroids and media for tumor cell growth. After thawing, all PDC lines, except 997537-175-T-J1-PDC and 415267-285-R-J2-PDC, were cultured in Matrigel-coated flasks prepared with a working solution of 1X Ham's F-12 nutrient mix, without supplementation (Thermo Fisher Scientific, cat. 11765054), 100 U/mL penicillin-streptomycin (Thermo Fisher Scientific, cat. 15140122), and 2.5% Matrigel (Corning Inc., Corning, NY, cat. 354248) for the first three passages. The two PDC lines 997537-175-T-J1-PDC and 415267-285-R-J2-PDC were cultured on uncoated flasks. The 857933-349-R-J2-PDC line was cultured in 6C/Colon 1B media containing advanced DMEM/F-12 (Thermo Fisher Scientific, cat. 12634028), 10 mM HEPES (Thermo Fisher Scientific, cat. 15630080), 1X GlutaMAX supplement (Thermo Fisher Scientific, cat. 35050061), 0.1 mg/mL primocin (InvivoGen, San Diego, CA, cat. ant-pm-2), 10% defined fetal bovine serum, heat inactivated (HyClone Laboratories Inc., Logan, UT, cat. SH30070.03HI), 50% L-WRN conditioned media (ATCC, cat. CRL-3276), 1.25 mM N-Acetyl-L-cysteine (Sigma-Aldrich, cat. A9165), 10 mM nicotinamide (Sigma-Aldrich, cat. N0636), 1X B-27 supplement (Thermo Fisher Scientific, cat. 17504044), 1X N-2 supplement (Thermo Fisher Scientific, cat. […]

[1] = compound alone, run of 12/05/2023
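Note: spheroids exposed to drugs for one week before measurement.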
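Throughout, for viability, T/C: percent viability relative to DMSO vehicle control taken as 100%.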

Row | SMILES | viability, T/C (compound 0.0316 µM) | viability, T/C (compound 0.1 µM) | viability, T/C (compound 0.316 µM) | viability, T/C (compound 1 µM) | viability, T/C (compound 3.16 µM) | IC50 (compound alone, run of 11/27/2023) | IC50 [1] | viability, T/C (compound 0.000316 µM) | viability, T/C (compound 0.001 µM) | viability, T/C (compound 0.00316 µM) | viability, T/C (compound 0.01 µM) | IC50 (curve of compound) | viability, T/C (compound 10 µM)
1 | Cc1cccc(N(C)C(=O)C2C(O)CCN2c2nc(C)cc(C(F)(F)F)c2C#N)c1 (centres undefined) | 102% [middle of 13 runs] | 103% [middle of 13 runs] | 102% [middle of 13 runs] | 103% [middle of 13 runs] | 97.3% [middle of 13 runs] | > 10 µM | > 10 µM | – | – | – | – | – | –
2 | Cn1ncnc1[C@H]1c2n[nH]c(=O)c3cc(F)cc(c23)N[C@@H]1c1ccc(F)cc1 | 128% and 92.6% and 95.2% | 101% (2×) and 99.2% | – | – | – | – | – | 107% and 92.2% and 97.5% | 108% and 87.9% and 99% | 110% and 111% and 116% | 124% and 107% and 98.2% | > 0.1 µM | –
3 | Nc1ccc(C#CCN(C(=O)Cc2ncc(C(F)(F)F)cc2C(F)(F)F)c2ccc(F)cc2)nn1 | 102% [middle of 13 runs] | 104% [middle of 13 runs] | 102% [middle of 13 runs] | 96.5% [middle of 13 runs] | 96.5% [middle of 13 runs] | – | > 10 µM | – | – | – | – | – | 95.6% [middle of 13 runs]
4 | Nc1ccn(C2OC(CO)C(O)C2(F)F)c(=O)n1 (centres undefined) | 73.4% and 61.2% and 61% | 37.7% and 47.8% and 35.1% | 42.1% and 40.7% and 40.9% | 40.9% and 50.7% and 30.8% | 37.9% and 48.4% and 41.9% | – | – | – | – | – | – | 0.0708 µM and 0.0788 µM and 0.053 µM | 41.2% and 42.5% and 33.8%
5 | O=C(Nc1ccc(O)c(NS(=O)(=O)c2ccc(F)cc2)c1)c1ccc(-c2ccccc2)cc1 | 93.4% and 116% (2×) | 99.8% and 93% and 108% | 110% and 99.2% and 96.8% | 91.6% and 92.6% and 111% | 111% and 88.9% and 86.7% | – | – | – | – | – | – | > 10 µM and 9.06 µM | 52% and 54.8% and 46.6%
6 | O=C(c1cc(Cc2n[nH]c(=O)c3ccccc23)ccc1F)N1CCN(C(=O)C2CC2)CC1 | 94.4% and 93.8% and 100% | 101% and 83.9% and 107% | 98.9% and 81.6% and 109% | 97.1% and 85.2% and 89.6% | 98.6% and 94.9% and 100% | – | – | – | – | – | – | > 10 µM | 88.7% and 80.5% and 96.8%
7 | O=c1[nH]cc(F)c(=O)[nH]1 | 95.9% and 94% and 105% | 103% and 102% and 106% | 105% and 118% and 103% | 96.4% and 103% and 93.8% | 90.9% and 85.9% and 98.6% | – | – | – | – | – | – | > 10 µM | 74.2% and 79.7% and 81.9%
